The data set is described as follows: in vitro. To be noted: human, hela cells, % viability.

Each structure is given as a SMILES string.

In the case of `O=C(NCC1CCCN1)c1cnn(-c2ccc(Cl)cc2)c1C(F)(F)F` (centres unmarked) [CBK115925C], the viability at 28.5 h, 10 µM came out at 101%.
In the case of `NCCNC(=O)c1ccc(-c2cccc(C(F)(F)F)c2)o1` [CBK115927C], the viability at 28.5 h, 10 µM was 104%.
Still for that read-out and setting: in the case of `CN1CCN(CCOC(=O)N2CCN(c3cccc(C(F)(F)F)c3)CC2)CC1` [CBK115940C] it was 103%; in that of `O=C(O)c1cccc(Sc2nccc(C(F)(F)F)n2)c1` [CBK115957], 90.2%.
For `COc1ccccc1-c1nnc(SCC(=O)O)n1-c1ccccc1` [CBK116149], the viability at 28.5 h, 10 µM was 89.5%.
Regarding `COc1ccc2[nH]cc(CCNC(=O)CC(C)O)c2c1` (centres unmarked) [CBK116201], the viability at 28.5 h, 10 µM worked out at 106%.
Same read-out and setting: the same measure for `COc1ccc2[nH]cc(CCNC(=O)c3cc(C)[nH]n3)c2c1` [CBK116206]: 89.8%; for `COc1ccc2[nH]cc(CCNC(=O)[C@H](CC(C)C)NC(C)=O)c2c1` [CBK116210]: 107%.
Turning to `CCCc1n[nH]c(O)c1Cc1ccc(OCCCN(C)C)cc1` [CBK116249A], the viability at 28.5 h, 10 µM came out at 93.1%.
Consider `CN1CCN(C(=O)Nc2cccc(-c3nc(-c4ccc(C#N)cc4)cnc3N)c2)CC1` [CBK116251], for which the viability at 28.5 h, 10 µM was determined as 91.7%.
Turning to `Cc1cc(NC(=O)CC2CC2)c2ccccc2n1` [CBK116257], the viability at 28.5 h, 10 µM is 98.6%.
Turning to `Cc1cc(NC(=O)Cc2ccsc2)c2ccccc2n1` [CBK116259], the viability at 28.5 h, 10 µM stood at 89.4%.
For `Cc1cc(NC(=O)c2cc(C)[nH]n2)c2ccccc2n1` [CBK116260], the viability at 28.5 h, 10 µM is 98.5%.
As for `O=C(NC1CC2CCC(C1)N2Cc1ccccc1)c1cccc(Cl)c1` (centres unmarked) [CBK116291], the viability at 28.5 h, 10 µM turned out to be 95.4%.
On to `O=C1N=C(NC2CC3CCC2C3)SC12CCCO2` (centres unmarked) [CBK116312], for which the viability at 28.5 h, 10 µM was 110%.
As to `CN1CC(=O)N(c2ccc(Cl)cc2Cl)C1=O` [CBK116319], the viability at 28.5 h, 10 µM stood at 93%.
On to `CN1C(=O)CN(C2CCCCC2)C1=O` [CBK116320], for which the viability at 28.5 h, 10 µM is 82.3%.
Regarding `CC(C(=O)N1CCCCC1)n1sc2ccccc2c1=O` (centres unmarked) [CBK116322], the viability at 28.5 h, 10 µM came out at 98.4%.
On to `CCOC(=O)c1c(NC(=O)c2ccccc2C(=O)O)sc2c1CCCC2` [CBK116364], for which the viability at 28.5 h, 10 µM was found to be 113%.
As to `Cc1ccc(C)n1-c1ccc(CC(=O)O)cc1` [CBK116374], the viability at 28.5 h, 10 µM came to 92.2%.
On to `Cc1ccc(-c2ccccc2)n1-c1ccc(O)c(C(=O)O)c1` [CBK116375], for which the viability at 28.5 h, 10 µM came to 103%.
For the compound `Cc1ccc(C)n1-c1ccc(O)c(C(=O)O)c1` [CBK116381], the viability at 28.5 h, 10 µM was determined as 94.2%.
Consider `CCc1c(C)nc2ccccc2c1SCCC(=O)O` [CBK116382C], for which the viability at 28.5 h, 10 µM is 118%.
The same measure, in the same setting: in the case of `Cc1ccc(NC2(C#N)C(=O)Nc3ccccc32)cc1C` (centres unmarked) [CBK116388] it was 114%; in that of `Cc1cc(N2CCN(c3ccccc3)CC2)nc(-c2ccccc2O)n1` [CBK116405], 92.1%.
As for `N#Cc1ccc(-c2cnc(N)c(-c3ccc(NC(=O)CCN4CCCCC4)cc3)n2)cc1` [CBK116418], the viability at 28.5 h, 10 µM stood at 85%.
Still for that read-out and setting: in the case of `COC(=O)c1cn(-c2ccc(Cl)cc2)c(=O)c2ccccc12` [CBK116489] it was 101%; in that of `CCCC1CCN(c2ncnc(Oc3ccc(C(=O)c4ccc(F)cc4)cc3)c2[N+](=O)[O-])CC1` [CBK116495], 85%.
Take `O=C1CN(c2ccccc2)C(=O)N1c1ccccc1` [CBK116496]: the viability at 28.5 h, 10 µM is 98.2%.
Still for that read-out and setting: in the case of `Cn1c(=O)n(-c2cccc(Cl)c2)c(=O)n1C` [CBK116498] it was 82.2%.
The same measure, in the same setting: the same measure for `CCN(CC)S(=O)(=O)c1cccc(-n2sc3ccccc3c2=O)c1` [CBK116501]: 96.2%; for `CCN1CC2(CCNCC2)c2ccccc21` [CBK116520]: 90.4%.
As to `O=C(c1cc(-c2ccc(Cl)cc2)[nH]n1)N1CCN(c2ncccn2)CC1` [CBK116551], the viability at 28.5 h, 10 µM is 93%.
On the same count and under the same terms, the same measure for `CC(C)(N)CNC(=O)c1cc(-c2ccc(Cl)cc2)[nH]n1` [CBK116554]: 91.5%; for `O=C(Nc1cccnc1)c1cc(-c2ccc(Cl)cc2)on1` [CBK116555]: 92.8%.
In the case of `CN(C)CCCNC(=O)c1cc(-c2ccc(Cl)cc2)on1` [CBK116557], the viability at 28.5 h, 10 µM was determined as 90.2%.
Turning to `O=C(CC1CC1)Nc1cc(-c2ccncc2)c[nH]c1=O` [CBK116585], the viability at 28.5 h, 10 µM came to 91.9%.
Take `CN1CCC[C@H]1C(=O)Nc1cc(-c2ccncc2)c[nH]c1=O` [CBK116587]: the viability at 28.5 h, 10 µM worked out at 107%.
The same measure, in the same setting: the same measure for `COc1ccc2[nH]cc(CCNC(=O)CCC(=O)O)c2c1` [CBK116605]: 96.5%.
Same read-out and setting: the same measure for `COc1ccc(COc2nc3ccccc3nc2NC(C)C)cc1OC` [CBK116610]: 93.5%.
On the same count and under the same terms, in the case of `COc1ccc(COc2nccnc2N2CCCC2)cc1OC` [CBK116613] it was 94.8%.
With `FC(F)(F)c1cccnc1OCCOc1ccc(Cl)cc1` [CBK116621], the viability at 28.5 h, 10 µM is 90.5%.
With `CC(C)(C)c1cc(C(=O)NCCN)n(Cc2ccc(Cl)cc2Cl)n1` [CBK116631T], the viability at 28.5 h, 10 µM came out at 95.1%.
The same measure, in the same setting: in the case of `O=C(Nc1ccncc1)c1cnc2cc(C(F)(F)F)ccc2c1O` [CBK116633T] it was 92.1%; in that of `O=C(NCc1ccccn1)c1cnn(-c2ccc(Cl)cc2)c1C(F)(F)F` [CBK116637T], 101%.
Turning to `O=[N+]([O-])c1ccc2c(c1)COC1(CCNCC1)O2` [CBK116644], the viability at 28.5 h, 10 µM (bulk resorufin, single well) came out at 83.7%.
Turning to `CN(C)C(=O)c1ccc(-c2cnc(N)c(-c3ccc(O)cc3)n2)cc1` [CBK116686], the viability at 28.5 h, 10 µM came out at 91.7%.
`O=C(NCc1ccc(F)cc1)N(Cc1cccc(Cl)c1)CC1CCNCC1` [CBK119479]: the viability at 28.5 h, 10 µM was found to be 117%.
On the same count and under the same terms, the same measure for `COc1ccc(CCCC(=O)Nc2cc3cccnc3c(Br)n2)cc1` [CBK119486]: 99.6%.
Regarding `O=C(NC1CC2CCC(C1)N2Cc1ccccc1)c1ccc(Cl)cc1` (centres unmarked) [CBK120192], the viability at 28.5 h, 10 µM stood at 88.4%.
The same measure, in the same setting: in the case of `CC1CCCCN1Cc1ccc(-c2nnn(CC(=O)NCc3ccco3)n2)cc1` (centres unmarked) [CBK122002] it was 96%.
Still for that read-out and setting: the same measure for `CCN(CC)CCC(=O)N1CC2(CCN(C(=O)OCc3ccccc3)CC2)c2ccccc21` [CBK122479]: 106%; for `Nc1ncc(-c2cc(C(F)(F)F)cc(C(F)(F)F)c2)nc1-c1ccc(O)cc1` [CBK122503]: 98.3%; for `Nc1ncc(-c2ccc3c(c2)OCO3)nc1-c1ccc(O)cc1` [CBK122505]: 94.7%.
`Nc1ncc(-c2cccc([N+](=O)[O-])c2)nc1-c1ccc(O)cc1` [CBK122507]: the viability at 28.5 h, 10 µM was found to be 101%.
Same read-out and setting: in the case of `CC(=O)c1cccc(-c2cnc(N)c(-c3ccc(O)cc3)n2)c1` [CBK122508] it was 98.1%.
Still for that read-out and setting: the same measure for `Nc1ncnc2[nH]nc(Nc3ccc(F)cc3)c12` [CBK122523]: 79%.
On the same count and under the same terms, the same measure for `O=C(O)CCSc1ccnc2ccccc12` [CBK122524C]: 93.2%; for `CCC1(CC)OC(NCc2ccccc2)=NC1=O` [CBK122636]: 86.2%.
For the compound `CCN(CC)CCNC(=O)c1cccc(Nc2cncc(-c3ccc(O)cc3)n2)c1` [CBK122671], the viability at 28.5 h, 10 µM is 96.9%.
As for `CCCCOc1ccc(OC(=O)C2CCN(CCCC)CC2)cc1` [CBK122680], the viability at 28.5 h, 10 µM was 112%.
Same read-out and setting: in the case of `CCCCN1CCC(C(=O)Oc2ccc(OC)c3ccccc23)CC1` [CBK122682] it was 97.2%.
As for `Cc1cccc(C)c1NC(=O)CN(Cc1ccccc1)Cc1cc2ccc(C)c(C)c2[nH]c1=O` [CBK122696T], the viability at 28.5 h, 10 µM was found to be 94.4%.
Take `CCNC(=O)N1CC2(CCN(CCOc3ccccc3)CC2)c2ccccc21` [CBK122701]: the viability at 28.5 h, 10 µM turned out to be 93.9%.
On the same count and under the same terms, in the case of `CC(C)C(=O)N1CC2(CCN(Cc3ccc(C(C)C)cc3)CC2)c2ccccc21` [CBK122702] it was 98.8%.
On the same count and under the same terms, in the case of `CC(C)c1ccc(CN2CCC3(CC2)CN(CCO)c2ccccc23)cc1` [CBK122708] it was 93.4%.
Still for that read-out and setting: the same measure for `COc1ccc2[nH]cc(CCNC(=O)c3ccc4nc[nH]c4c3)c2c1` [CBK122714]: 94.5%.
For `COc1ccc2[nH]cc(CCNC(=O)c3ccc4[nH]c(=O)[nH]c4c3)c2c1` [CBK122721], the viability at 28.5 h, 10 µM turned out to be 93.4%.
On to `COc1ccc2[nH]cc(CCNC(=O)c3cccnc3)c2c1` [CBK122722], for which the viability at 28.5 h, 10 µM turned out to be 101%.
In the case of `COc1ccccc1OCC(=O)Nc1cc(C)nc2ccccc12` [CBK122728], the viability at 28.5 h, 10 µM turned out to be 97.3%.
For `CSCCC(=O)Nc1cc(C)nc2ccccc12` [CBK122729], the viability at 28.5 h, 10 µM was determined as 108%.
Still for that read-out and setting: the same measure for `Cc1cc(NC(=O)C2CCN(C)CC2)c2ccccc2n1` [CBK122730]: 91.1%; for `Cc1cc(NC(=O)c2c(F)cccc2F)c2ccccc2n1` [CBK122737]: 92.7%.
On the same count and under the same terms, in the case of `Cc1cc(NC(=O)c2ccc3c(c2)OCCO3)c2ccccc2n1` [CBK122739] it was 103%.
The same measure, in the same setting: the same measure for `COc1cc2c(cc1OC)CN(C(=O)C1CCN(C)CC1)CC2` [CBK122744]: 93.2%.
As to `COc1cc2c(cc1OC)CN(C(=O)Cn1cc(C)c(=O)[nH]c1=O)CC2` [CBK122745], the viability at 28.5 h, 10 µM was 92.4%.
On the same count and under the same terms, in the case of `COc1cc2c(cc1OC)CN(C(=O)c1cncnc1)CC2` [CBK122748] it was 105%; in that of `COc1cc2c(cc1OC)CN(C(=O)Cc1ccccc1)CC2` [CBK122751], 90.7%; in that of `COc1ccc(Cn2c(=O)[nH]n(-c3ccccc3)c2=O)cc1F` [CBK122772], 86.5%.
As for `C[C@H](NC1=NC(=O)C2(CCN(Cc3ccccc3)CC2)O1)c1ccccc1` [CBK122798T], the viability at 28.5 h, 10 µM is 88.6%.
With `CCCOc1ccc(O)cc1` [CBK122802], the viability at 28.5 h, 10 µM is 97.8%.
Still for that read-out and setting: in the case of `COC(=O)CCc1ccc(-c2cnc(N)c(-c3ccc(O)cc3)n2)cc1` [CBK122809] it was 88.9%; in that of `O=S(=O)(c1ccc(-c2cncc(-c3ccc(O)cc3)n2)cc1)N1CCOCC1` [CBK123786], 84.6%.

Values taken from paper PMC12040169 (PLOS Biology, 2025).
